Measurements published in ChEMBL document CHEMBL4346726 (Bioorg Med Chem Lett, 2019).

Key:
Hepatitis C virus = assay: Antiviral activity against HCV genotype 3a in RLuc cells assessed as reduction in viral replication by luciferase reporter gene assay; type: functional, organism-based, Hepacivirus hominis, subtype 3a
[1] = Drug metabolism in human liver microsomes assessed as metabolite formation in presence of glutathione; type: ADME, Microsome
[2] = Inhibition of HCV genotype 3a NS3/4a protease by enzymatic assay; design: species or system Hepatitis C virus subtype 3a
Hepacivirus hominis = assay: Binding affinity to HCV NS3/4a protease assessed as compound-protein adduct formation per mg protein using radiolabelled compound
[3] = Volume of distribution at steady state in rat; type: ADME; details: in vivo, read-out: Vdss
[4] = Oral bioavailability in rat; type: ADME, organism-based; details: in vivo
[5] = Lipophilicity, log D of compound; type: physicochemical; details: octanol/water
[6] = Half life in rat; type: ADME; details: in vivo
[7] = Clearance in rat; type: ADME; details: in vivo
[8] = Drug concentration in rat liver after 6 hrs; type: ADME, tissue-based; details: read-out: Drug uptake
[9] = Drug metabolism in human liver microsomes assessed as hydroxylated metabolite formation; type: ADME, Microsome
[10] = MRT in rat; type: ADME; details: in vivo

| Compound | EC50 (Hepatitis C virus; Hepatitis C virus, subtype 3a) [nM] | Ki [2] [nM] | PB (Hepacivirus hominis) [pmol/mg] | other results |
| --- | --- | --- | --- | --- |
| C=C[C@@H]1C[C@]1(NC(=O)[C@@H]1[C@H](C)[C@@H]2CN1C(=O)[C@H](C(C)(C)C)NC(=O)O[C@@H]1C[C@H]1CCCCCc1nc3ccc(OC)cc3nc1O2)C(=O)NS(=O)(=O)C1CC1 | 41 | 0.094 | – | Drug metabolism [1]: Metabolite_Detected |
| CC[C@@H]1[C@@H]2CN(C(=O)[C@H](C(C)(C)C)NC(=O)O[C@@H]3C[C@H]3CCCCCc3nc4ccc(OC)cc4nc3O2)[C@@H]1C(=O)N[C@]1(C(=O)NS(=O)(=O)C2CC2)C[C@H]1CC | 272 | 0.563 | – | Vd [3]: 3.1 L/kg; bioavailability [4]: 100%; logD [5]: 4.6; half-life [6]: 5 h; clearance [7]: 11.2 mL/min/kg; concentration at 6 h [8]: 30.2 µM |
| CCC[C@@H]1[C@@H]2CN(C(=O)[C@H](C(C)(C)C)NC(=O)O[C@@H]3C[C@H]3CCCCCc3nc4ccc(OC)cc4nc3O2)[C@@H]1C(=O)N[C@]1(C(=O)NS(=O)(=O)C2(C)CC2)C[C@H]1C(F)F | 36 | 0.12 | – | – |
| CC(C)(C)OC(=O)N[C@H]1CCCCC/C=C\[C@@H]2C[C@@]2(C(=O)NS(=O)(=O)C2CC2)NC(=O)[C@@H]2C[C@@H](OC(=O)N3Cc4cccc(F)c4C3)CN2C1=O | – | – | 202 | – |
| CC[C@@H]1C[C@]1(NC(=O)[C@@H]1[C@H](C)[C@@H]2CN1C(=O)[C@H](C(C)(C)C)NC(=O)O[C@@H]1C[C@H]1CCCCCc1nc3ccc(OC)cc3nc1O2)C(=O)NS(=O)(=O)C1CC1 | 188 | 0.53 | – | – |
| CC[C@@H]1[C@@H]2CN(C(=O)[C@H](C(C)(C)C)NC(=O)O[C@@H]3C[C@H]3CCCC3CC3c3nc4ccc(OC)cc4nc3O2)[C@@H]1C(=O)N[C@]1(C(=O)NS(=O)(=O)C2(C)CC2)C[C@H]1C(F)F (stereo in doubt; 45) | – | 1.7 | – | EC50 (Hepatitis C virus): 128 nM |
| CC[C@@H]1[C@@H]2CN(C(=O)[C@H](C(C)(C)C)NC(=O)O[C@@H]3C[C@H]3CCCCCc3nc4ccc(OC)cc4nc3O2)[C@@H]1C(=O)N[C@]1(C(=O)NS(=O)(=O)C2(C)CC2)C[C@H]1C(F)F | 23 | 0.067 | 10 | Drug metabolism [9]: Metabolite_Detected; Vd [3]: 1.7 L/kg; bioavailability [4]: 31%; logD [5]: 3.8; half-life [6]: 1.4 h; MRT [10]: 1.4 h; clearance [7]: 21.7 mL/min/kg; concentration at 6 h [8]: 14 µM |
| CC[C@@H]1[C@@H]2CN(C(=O)[C@H](C(C)(C)C)NC(=O)O[C@@H]3C[C@H]3CCCC3CC3c3nc4ccc(OC)cc4nc3O2)[C@@H]1C(=O)N[C@]1(C(=O)NS(=O)(=O)C2(C)CC2)C[C@H]1C(F)F (stereo in doubt; 46) | – | 9.4 | – | EC50 (Hepatitis C virus): 829 nM |
| COc1ccc2nc3c(nc2c1)O[C@H]1CN(C(=O)[C@H](C(C)(C)C)NC(=O)O[C@@H]2C[C@H]2CCCCC3)[C@H](C(=O)N[C@]2(C(=O)NS(=O)(=O)C3CC3)C[C@H]2CCF)[C@@H]1C | 419 | 1.3 | – | – |
| CC[C@@H]1C[C@]1(NC(=O)[C@@H]1C[C@@H]2CN1C(=O)[C@H](C(C)(C)C)NC(=O)OCC(C)(C)CCCCc1cccc3c1CN(C3)C(=O)O2)C(=O)NS(=O)(=O)C1CC1 | – | – | 29 | – |
| C=C[C@@H]1C[C@]1(NC(=O)[C@@H]1C[C@@H](Oc2cc(-c3csc(NC(=O)C(C)C)n3)nc3c(Br)c(OC)ccc23)CN1C(=O)[C@@H](NC(=O)OC1CCCC1)C(C)(C)C)C(=O)O | – | – | 15 | – |
| CC[C@@H]1[C@@H]2CN(C(=O)[C@H](C(C)(C)C)NC(=O)O[C@@H]3C[C@H]3CCCCC(F)c3nc4ccc(OC)cc4nc3O2)[C@@H]1C(=O)N[C@]1(C(=O)NS(=O)(=O)C2(C)CC2)C[C@H]1C(F)F (stereo partly specified) | 35 | 0.13 | – | – |
| CC[C@@H]1[C@@H]2CN(C(=O)[C@H](C(C)(C)C)NC(=O)O[C@@H]3C[C@H]3CCCCCc3nc4ccc(OC)cc4nc3O2)[C@@H]1C(=O)N[C@]1(C(=O)NS(=O)(=O)C2(C)CC2)C[C@H]1C | 109 | 0.838 | – | – |
| COc1ccc2nc3c(nc2c1)O[C@H]1CN(C(=O)[C@H](C(C)(C)C)NC(=O)O[C@@H]2C[C@H]2CCCCC3)[C@H](C(=O)N[C@]2(C(=O)NS(=O)(=O)C3CC3)C[C@H]2CC(F)F)[C@@H]1C | 375 | 0.92 | – | – |
| CC[C@@H]1[C@@H]2CN(C(=O)[C@H](C(C)(C)C)NC(=O)O[C@@H]3C[C@H]3CC/C=C/C(F)(F)c3nc4ccc(OC)cc4nc3O2)[C@@H]1C(=O)N[C@]1(C(=O)NS(=O)(=O)C2(C)CC2)C[C@H]1C(F)F | 5.3 | 0.053 | – | – |
| C=C[C@@H]1C[C@]1(NC(=O)[C@@H]1C[C@@H]2CN1C(=O)[C@H](C(C)(C)C)NC(=O)O[C@@H]1C[C@H]1CCCCCc1nc3ccc(OC)cc3nc1O2)C(=O)NS(=O)(=O)C1CC1 | – | – | 24 | – |

More lines, main results first:

| EC50 (Hepatitis C virus; Hepatitis C virus, subtype 3a) [nM] | Ki [2] [nM] | PB (Hepacivirus hominis) [pmol/mg] | Compound | other results |
| --- | --- | --- | --- | --- |
| – | – | 114 | C=C[C@@H]1C[C@]1(NC(=O)[C@@H]1C[C@@H](Oc2ncc(OC)c3ccc(Cl)cc23)CN1C(=O)[C@@H](NC(=O)OC(C)(C)C)C(C)(C)C)C(=O)NS(=O)(=O)C1CC1 | – |
| 27 | 0.043 | – | CC[C@@H]1[C@@H]2CN(C(=O)[C@H](C(C)(C)C)NC(=O)O[C@@H]3C[C@H]3CCCCCc3nc4ccc(OC)cc4nc3O2)[C@@H]1C(=O)N[C@]1(C(=O)NS(=O)(=O)C2CC2)C[C@H]1C(F)F | Vd [3]: 1 L/kg; bioavailability [4]: 36%; logD [5]: 3.5; half-life [6]: 0.8 h; clearance [7]: 33.3 mL/min/kg; concentration at 6 h [8]: 1.2 µM |
| 20 | 0.1 | – | COc1ccc2nc3c(nc2c1)O[C@H]1CN(C(=O)[C@H](C(C)(C)C)NC(=O)O[C@@H]2C[C@H]2CCCCC3)[C@H](C(=O)N[C@]2(C(=O)NS(=O)(=O)C3(C)CC3)C[C@H]2C(F)F)[C@@H]1C | Vd [3]: 2.2 L/kg; bioavailability [4]: 100%; logD [5]: 3.5; half-life [6]: 1.3 h; clearance [7]: 35 mL/min/kg; concentration at 6 h [8]: 3.1 µM |
| 20 | 0.081 | 117 | C=C[C@@H]1C[C@]1(NC(=O)[C@@H]1[C@H](CC)[C@@H]2CN1C(=O)[C@H](C(C)(C)C)NC(=O)O[C@@H]1C[C@H]1CCCCCc1nc3ccc(OC)cc3nc1O2)C(=O)NS(=O)(=O)C1CC1 | Vd [3]: 1.9 L/kg; logD [5]: 4.1; half-life [6]: 2.2 h; clearance [7]: 14.7 mL/min/kg; concentration at 6 h [8]: 20.9 µM |
| 74 | 0.165 | – | COc1ccc2nc3c(nc2c1)O[C@@H]1C[C@@H](C(=O)N[C@]2(C(=O)NS(=O)(=O)C4(C)CC4)C[C@H]2C(F)F)N(C1)C(=O)[C@H](C(C)(C)C)NC(=O)O[C@@H]1C[C@H]1CCCCC3 | – |
| 1110 | 0.87 | – | COc1ccc2nc3c(nc2c1)O[C@H]1CN(C(=O)[C@H](C(C)(C)C)NC(=O)O[C@@H]2C[C@H]2CCCCC3)[C@H](C(=O)N[C@]2(C(=O)NS(=O)(=O)C3(C)CC3)C[C@H]2C(F)F)[C@@H]1Cc1ccccc1 | – |
| 1120 | 0.63 | – | COc1ccc2nc3c(nc2c1)O[C@H]1CN(C(=O)[C@H](C(C)(C)C)NC(=O)O[C@@H]2C[C@H]2CCCCC3)[C@H](C(=O)N[C@]2(C(=O)NS(=O)(=O)C3(C)CC3)C[C@H]2C(F)F)[C@@H]1CC(C)C | – |
| – | – | 96 | COc1ccc2c(O[C@H]3CCN4C(=O)N(C)CCCC/C=C\[C@@H]5C[C@@]5(C(=O)NS(=O)(=O)C5(C)CC5)NC(=O)[C@@H]4C3)cc(-c3nc(C(F)(F)F)cs3)nc2c1C | – |
| – | – | 22 | COc1ccc2c(O[C@@H]3C[C@H]4C(=O)N[C@]5(C(=O)NS(=O)(=O)C6CC6)C[C@H]5/C=C\CCCCN(C)C(=O)[C@@H]4C3)cc(-c3nc(C(C)C)cs3)nc2c1C | – |
| – | – | 26 | CC[C@@H]1C[C@]1(NC(=O)[C@@H]1C[C@@H](Oc2cc(-c3csc(NC(C)C)n3)nc3c(Cl)c(OCCN4CCOCC4)ccc23)CN1C(=O)[C@@H](NC(=O)O[C@@H]1C[C@@H]2C[C@@H]2C1)C(C)(C)C)C(=O)O | – |
| 1160 | 4.9 | – | COc1ccc2nc3c(nc2c1)O[C@H]1CN(C(=O)[C@H](C(C)(C)C)NC(=O)O[C@@H]2C[C@H]2CCCCC3)[C@H](C(=O)N[C@]2(C(=O)NS(=O)(=O)C3(C)CC3)C[C@H]2C(F)F)[C@@H]1C1CC1 | – |
| – | – | 295 | Cc1cnc(C(=O)N[C@H]2CCCCC/C=C\[C@@H]3C[C@@]3(C(=O)NS(=O)(=O)C3CC3)NC(=O)[C@@H]3C[C@@H](Oc4nc5ccccc5c5ccccc45)CN3C2=O)cn1 | – |
